Test: Human HepG2 cell viability assay in 384 well format
Format: toxicity, cell-based
Design: dose 125 nL, time 70.5 hour; cytotoxicity at 70.5 h: concentration not given beside the values
Settings: HepG2 cells, read-out: Inhibition

SMILES	cytotoxicity at 70.5 h
Cc1nc(C2CCCN(c3ncc(Br)cn3)C2)no1 (stereo not drawn)	-13.9%
Cc1nc(S(=O)(=O)N2CCC3(CCCCC3)C2)cn1C	-1.45%
O=C1OCCC1N1CCN(c2ccc(O)cc2)CC1 (stereo not drawn)	10.3%
O=C(Nc1ccccc1OCCc1ccccn1)N1CC[C@@H](O)C1	-31%
COCC(=O)N1C[C@@H]2COC[C@]2(COC)C1	-9.06%
CCS(=O)(=O)N1CCCC(c2nccn2Cc2ccccn2)C1 (stereo not drawn)	-2.1%
CN1CCN(c2ncc(-c3cnccn3)c([C@H]3CCCO3)n2)CC1	-8.8%
COc1cccc(-c2cccc(N3CCC(N[C@@H]4CCOC4)CC3)c2)c1	2.44%
Cn1ncc2c(=O)[nH]c(CN3CCCC3c3cccc(F)c3)nc21 (stereo not drawn)	-7.63%
O=C1CC(c2ccncc2)c2c(sc3c2CCCC3)N1 (stereo not drawn)	-13.1%
CCOc1cccc(CNc2ccccc2Cl)c1O	-4.02%
CCn1ccc(-c2cc(C(=O)O)n3ncc(Cl)c3n2)n1	-10.2%
CC(NC(=O)N1CCNC(=O)CC1)c1c(F)cccc1Cl (stereo not drawn)	-4.44%
O=C(N1CCCC1)N1CCN(CC2CC2)c2ncccc2C1	6.34%
O=C(CCNS(=O)(=O)c1ccccc1F)NCc1ccoc1	4.05%
Cc1[nH]ncc1C(=O)N1CCCN(Cc2nccn2C(C)C)CC1	-1.07%
CN1N=C(C(=O)NCCc2ccc(OC3CCCC3)cc2)CCC1=O	1.04%
O=C(CCc1ccccc1)N1CCCCC1Cn1cccn1 (stereo not drawn)	11.8%
Cc1ccc2nc(CN3CCCC3c3cccnc3)cc(O)c2c1 (stereo not drawn)	-2.21%
Cc1ccc(OC2(C(=O)O)CCN(C(=O)c3ccsc3)CC2)cn1	-4.13%
O=C(c1cccnc1)N1CCSCC1	-16.5%
Cc1nn(C)c(N2CCOCC2)c1CNCc1ccnn1C	-9.28%
Cc1cc(C)n(CCCC(=O)N2CC[C@H]3NCCC[C@]3(CO)C2)n1	-2.14%

SMILES	cytotoxicity at 70.5 h
O=C([C@H]1CC[C@@H]2[C@@H](CCN2c2ncccn2)O1)N1CCCCO1	-1.66%
Cc1cc2nc(CO[C@H]3CN(C4CCN(C)CC4)C[C@H]3F)[nH]c2cc1C	-4.5%
Cn1c2c(c(=O)n1C)CN(C(=O)c1ccco1)CCC2	12.8%
Cc1cc(C(=O)N(CC(C)C)CC(O)c2ccc(F)cc2)[nH]n1 (stereo not drawn)	-2.51%
Cc1ccc(C(=O)N2CCSCC2)cc1NC(=O)NCCO	-4.73%
COC(=O)CC(NC(=O)c1ccc(OC)cc1OC)c1cccs1 (stereo not drawn)	-11.2%
CCN1CCOCC12CCN(c1ccc(C#N)cc1)CC2	-6.86%
O=S(=O)(c1cc(F)ccc1F)N1CCCC1c1ccncc1 (stereo not drawn)	-3.85%
CC1CCC(NC(=O)NCC(C)(C)CCS(C)(=O)=O)CC1 (stereo not drawn)	-4.98%
Cc1nnc(SCCNC(=O)c2cc(S(N)(=O)=O)ccc2F)s1	-5.1%
O=C(c1ccc[nH]1)N1CCCC(c2cc(C(F)(F)F)[nH]n2)C1 (stereo not drawn)	-0.878%
CC(NCCCn1ccnc1)c1ccc(N2CCCS2(=O)=O)cc1 (stereo not drawn)	31%
CC[C@@H]1N(Cc2ccncc2)CCC[C@]12CCC(=O)N2C	-20.1%
Cc1cc2c(=O)n3c(nc2s1)CCN(Cc1c[nH]cn1)CC3	1%
CCSc1nnc([C@@H](N)CC(C)C)o1	-7.55%
O=C(C[C@H]1[C@H]2CN(C(=O)CO)C[C@@H]12)Nc1cccnc1	0.591%
O=C(NC1CC1)C1CCN(c2nc3nc[nH]c(=O)c3s2)CC1	-20.8%
CCc1cnc(N)nc1NCc1ccc(OC)c(OC)c1	-1.08%
COc1ccc(-c2n[nH]cc2CN2CCSCC2)c(OC)c1	-7.44%
COc1nccnc1N1CCN(Cc2ccc3c(c2)OCO3)C(=O)C1	20.7%
CCOC(C(=O)N1CCn2c(C)nnc2C1)c1ccccc1 (stereo not drawn)	-11.7%
CC(C)COC(C)C(=O)NCc1ccc(OC(C)C)nc1 (stereo not drawn)	-3.57%
COCC(C)NC(=O)NCCCc1cc(N)n(-c2ccccc2)n1 (stereo not drawn)	-108%

SMILES	cytotoxicity at 70.5 h
Cc1cccc(NS(=O)(=O)c2cc(C(=O)O)oc2C)c1Cl	1.03%
Cn1cc(C(=O)OCC(N)=O)c(-c2ccc(F)cc2F)n1	-7.24%
O=C(CN1CCC(c2ccnn2CCO)CC1)NCC1CCCCC1	-3.43%
Cc1ccc(-c2cnc(CCC(=O)NCCN3CCOCC3)o2)cc1C	2.52%
O=C(c1ccnnc1)N1CC[C@H]2C[C@H](c3ccncn3)O[C@@H]2C1	5.3%
Cc1ccc(CN2CCN(C3CSCCSC3)CC2CCO)o1 (stereo not drawn)	-6.76%
COCC1CCN(C(=O)c2cc(O)nc(CC(C)C)c2)CC1	-7.27%
O=C(c1ccc(Cl)cc1)N1CC2(CCNC2)OCc2ccccc21 (stereo not drawn)	-5.43%
CN(C)CC1CSCCCN1S(=O)(=O)c1ccc(C(F)(F)F)cc1 (stereo not drawn)	-3.11%
CCc1nc(CN2CCN(C(=O)c3csnn3)CC2)cs1	-0.125%
COC(CNC(=O)C1CC1)c1ccc(C)s1 (stereo not drawn)	19.1%
Cc1ncncc1C(=O)N1CCCN(Cc2cnn(C(C)C)c2)CC1	8.58%
CCOc1ncccc1C(=O)N(C)Cc1ncc(C)c(OC)c1C	-2.95%
CN(C)c1ccc(CNCc2cnc(N3CCOCC3)nc2)cn1	2.93%
Cc1ccc(OCC(O)CNC(=O)C2(c3ccc(F)cc3)CC2)cc1 (stereo not drawn)	-7.12%
O=C(CCc1ccc(-c2ccccc2)[nH]1)N1CCCC(n2ccnc2)C1 (stereo not drawn)	-1.63%
CC(C(=O)NC1(C#N)CCCCC1)N1CCc2c(ncn2C2CC2)C1 (stereo not drawn)	-8.12%
COCCC(=O)N1CCCC(c2n[nH]cc2C)C1 (stereo not drawn)	15.1%
Cc1ccc(OCCC(=O)NC2CCc3nc(C)cn3C2)cc1 (stereo not drawn)	2.29%
CC(C)N(C)C(=O)c1ccc(Cl)c(NC(=O)C2CCC2)c1	19.4%
Cn1cc(CNc2ccc(F)c(N3CCCS3(=O)=O)c2)cn1	-1.61%
Cc1oncc1C(=O)N1C[C@H](OCc2ccccn2)[C@H]2OCCC[C@H]21	-11.5%
Cc1nn(C)c(Cl)c1C1CCCN1C(=O)c1cnn(C)c1C1CC1 (stereo not drawn)	-14.5%

SMILES	cytotoxicity at 70.5 h
CNS(=O)(=O)c1cccc(CNC(=O)c2cnn(C)c2C)c1	-11.8%
O=C1[C@H]2CC[C@H](CN(Cc3nnc(C4CC4)o3)C2)N1Cc1cscn1	18.5%
CCC(CO)NC(=O)Cc1ccc(NC(=O)CC2=CCCCC2)cc1 (stereo not drawn)	-3.34%
CC(CCNC(=O)N(C)CC1CCOCC1)N1CCCCC1 (stereo not drawn)	-7.97%
COc1cccc(-c2nc(CC(=O)NC3(C)CCS(=O)(=O)C3)cs2)c1 (stereo not drawn)	-8.05%
CCCc1cc(NC(=O)c2cccc(N3CCCNC3=O)c2)n[nH]1	-6.61%
CSc1ccccc1C(=O)N1C[C@H]2CC[C@@H]1CN(C(=O)N(C)C)C2	-8.08%
O=C(CS(=O)(=O)C1CCCC1)NC(c1ccc(F)cc1)C1CC1 (stereo not drawn)	1.6%
CCCN1C[C@H](NC(=O)c2ccccc2F)[C@@H](c2ccc(OC)cc2)C1	0.779%
Nc1cccnc1N1CCC(C(F)(F)F)CC1	14.9%
O=C(c1ccccc1OC1CCCC1)N1CCCC(n2cncn2)C1 (stereo not drawn)	-9.06%
COc1c(CNCc2ccc(C(=O)N(C)C(C)C)cc2)c(C)nn1C	34.2%
CCCc1cc(C(=O)N2C[C@H](O)[C@@H](N3CCCC3)C2)ccn1	16.4%
CCN1CCC(CNCc2c[nH]nc2C(C)(C)C)C1 (stereo not drawn)	-2.99%
CN1CCN(C2CCN(C(=O)CCC3CCCC3)CC2)CC1	-6.88%
Cc1noc(C)c1CNCC1COCc2c(-c3ccsc3)nnn2C1 (stereo not drawn)	-15.2%
CCn1cc(CN2CCN(Cc3cc(C)cc(C)c3)C(=O)C2)cc1C#N	15.6%
Cc1nc(CN2CCc3ncnc(-c4ccncc4)c3CC2)cs1	20%
c1cc(-c2ccc(CN3CCC4(CCNCC4)CC3)s2)[nH]n1	-2.82%
Cc1nn(C)c2c(=O)n(CC(=O)NCc3ccccn3)ccc12	0.706%
O=C(c1cccnc1)N1Cc2ccccc2OCC1Cn1ccnc1 (stereo not drawn)	9.81%
c1ccc(Cc2n[nH]c(C3CCOC3)n2)cc1 (stereo not drawn)	-3.76%
CN(Cc1ccc(F)cc1)C(=O)Cn1nc(-c2ccc(F)cc2)oc1=O	26.3%

SMILES	cytotoxicity at 70.5 h
Clc1ccc(-c2cnc(CNC3CCc4ncnn4C3)o2)cc1 (stereo not drawn)	-12.9%
CCN(CCC(=O)OC)C(=O)c1cc(F)cc2[nH]cnc12	0.0493%
O=C(Nc1cccnc1N1CCSCC1)c1cc2c(s1)CCCCC2	-6.67%
Cc1nccc(N2CCN(C3CCOCC3)CC(C(=O)N(C)C)C2)n1 (stereo not drawn)	-13.5%
CCCc1noc(C2CC(=O)N(Cc3ccccc3)C2)n1 (stereo not drawn)	-8.97%
CCS(=O)(=O)N1CCc2c(COC)cncc2C1	17.2%
CN(C(=O)c1ccccc1F)[C@@H]1CC[C@@H](O)[C@@H]1O	-5.24%
CO[C@@H]1CCN(C(=O)c2cnoc2C)[C@H]1Cc1ccccc1	2.59%
NC(=O)c1cnc(NCC(=O)NCc2ccco2)c(Cl)c1	-9.01%
CNc1cc(CNC(=O)c2ccncc2)nc(-c2ccncc2)n1	-2.12%
O=C(CCC1CCN(C(=O)c2cnco2)CC1)NCc1cccc(Cl)c1	-5.59%
COc1cccc2c1CCN(C(=O)NCc1nnc3ccccn13)C2	0.687%
CC(C)C(=O)Nc1cc(C(=O)NC2CC(C)(C)NC(C)(C)C2)nn1C	14.5%
Cc1cc(C)n(C2CCCN(C(=O)c3c(C)c(C)n[nH]c3=O)C2)n1 (stereo not drawn)	-8.79%
COc1ccc2c(c1)nc1n2[C@@H](CNCc2cnn(C)c2)COC1	-8.24%
Cn1ncc2c1CN(Cc1cccnc1)CC2COCC1CC1 (stereo not drawn)	-2.46%
O=S1(=O)NC2(CCCN(Cc3ccc(F)cc3)C2)COc2ccccc21 (stereo not drawn)	-3.88%
COc1cc(CCC(=O)NCC2CCCN2C)ccc1OCC(F)(F)F (stereo not drawn)	-7.43%
CC(C)NC(=O)N1CCC2(COCc3cnc(-c4ccccc4)nc32)C1 (stereo not drawn)	9.3%
CN1CC(=O)N(c2cnn(C)c2)CC12CCN(Cc1cccs1)C2 (stereo not drawn)	-1.01%
O=C1CC[C@H]2CN(c3ncc(F)cn3)CC[C@H]2N1CCc1c[nH]cn1	-8.52%
